Columns and labels:
[1] = biological target: T1, recombinant human GST-SYK (Homo sapiens, UniProt P43405); experiment: Homogeneous Time-Resolved Fluorescence (HTRF) assay for the recombinant human Syk enzyme; assay type: biochemical; settings: recombinant human GST-SYK 5 pM, ATP 25 μM, read-out: rhSYK IC50
T1 construct: purchased Carna Biosciences 08-176
Outline: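 GST-tagged human Syk (5 pM) preincubated 10 min with inhibitor (0.1% DMSO) in pH 7.5 Tris buffer, then 45 min at room temperature with 250 nM biotinylated peptide, 5 mM Mg and 25 μM ATP. EDTA-quenched; Eu-anti-phosphotyrosine/SA-APC HTRF read after 30 min, giving IC50.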

PGD2 = settings: dosed intranasally, phase I/II study, allergic rhinitis; cited from earlier work
[2] = phase II clinical trial, allergic rhinitis; cited from earlier work

Row | SMILES | IC50 [1] [nM] | other results
1 | COc1cc(Nc2nccc(C(F)(F)F)n2)cc(-c2cnc(C(C)(O)[C@H]3CC[C@H](C(=O)O)CC3)s2)n1 (single isomer, unassigned) [Example 4.21, (trans)-4-((R or S)-1-hydroxy-1-[5-(6-methoxy-4-{[4-(trifluoromethyl)pyrimidin-2-yl]amino}pyridin-2-yl)-1,3-thiazol-2-yl]ethyl}cyclohexane carboxylic acid] | 2.12 | –
2 | Cc1cc(Nc2cccc(C(F)(F)F)n2)cc(-c2cnc(C3(O)CCC(C(=O)O)C(C)(C)C3)s2)c1 (single isomer, unassigned) [Example 2.5, (1S,4R or 1R,4S)-4-hydroxy-2,2-dimethyl-4-[5-(3-methyl-5-{[6-(trifluoromethyl)pyridin-2-yl]amino}phenyl)-1,3-thiazol-2-yl]cyclohexane-carboxylic acid] | 2820 | –
3 | CC1(C)CC(O)(c2ncc(-c3cccc(Nc4cc(C(F)(F)F)ncn4)n3)s2)CCC1C(=O)O (single isomer, unassigned) [Example 3.6, (1S,4R or 1R,4S)-4-hydroxy-2,2-dimethyl-4-[5-(6-{[6-(trifluoromethyl)pyrimidin-4-yl]amino}pyridin-2-yl)-1,3-thiazol-2-yl]cyclohexanecarboxylic acid] | 0.517 | –
4 | Cc1cc(Nc2cccnn2)nc(-c2cnc(C3(O)CCCc4cc(C(=O)O)ccc43)s2)c1 (single isomer, unassigned) [Example 2.8, (R or S)-5-hydroxy-5-{5-[4-methyl-6-(pyridazin-3-ylamino)pyridin-2-yl]-1,3-thiazol-2-yl}-5,6,7,8-tetrahydronaphthalene-2-carboxylic acid] | 46.5 | –
5 | Cc1cc(Nc2cc(C(F)(F)F)ncn2)nc(-c2cnc(C3(O)CCC(C(N)=O)C(C)C3)s2)c1 (single isomer, unassigned) [Example 1.17, rel-(1S,2R,4R or S)-4-hydroxy-2-methyl-4-[5-(4-methyl-6-{[6-(trifluoromethyl)pyrimidin-4-yl]amino}pyridin-2-yl)-1,3-thiazol-2-yl] cyclohexane-carboxamide] | 1.25 | –
6 | CCCCOC(=O)[C@H]1CC[C@H](C(C)(O)c2ncc(-c3cc(Nc4nccc(C)n4)cc(C)n3)s2)CC1 (single isomer, unassigned) [Example 4.10, butyl (trans)-4-((R or S)-1-hydroxy-1-(5-{6-methyl-4-[(4-methylpyrimidin-2-yl)amino]pyridin-2-yl}-1,3-thiazol-2-yl)ethyl]cyclohexane carboxylate] | 94 | –
7 | Cc1cc(Nc2ncc(F)c(C)n2)cc(-c2cnc(C(C)(O)[C@H]3CC[C@H](C(=O)O)CC3)s2)n1 (single isomer, unassigned) [Example 4.20, (trans)-4-((R or S)-1-(5-{4-[(5-fluoro-4-methylpyrimidin-2-yl)amino]-6-methylpyridin-2-yl}-1,3-thiazol-2-yl)-1-hydroxyethyl]cyclo-hexanecarboxylic acid] | 4.4 | –
8 | Oc1cccc(Nc2ncc(F)c(Nc3cccc(O)c3)n2)c1 [Example R112] | – | change in PGD2 (PGD2): statistically significant decrease in PGD2; clinical safety (PGD2): safe across a range of indicators; efficacy versus placebo [2]: lack of efficacy versus placebo
